Test results taken from patent US9161936B2, “Laquinimod for treatment of GABA mediated disorders” (TEVA PHARMACEUTICAL INDUSTRIES, LTD., priority 2012, dated 2015).

Columns and labels:
[1] = tested on: glutamate-mediated sEPSCs in control neurons; experiment: Bath application of LQ on corticostriatal slices of wild type mice, sEPSCs; type: cell-based, mouse
cannabinoid CB1 receptor = cannabinoid CB1 receptor (Mus musculus, UniProt P47746); experiment: Effect of HU210 on sIPSC frequency in striatal neurons (CB1 sensitivity of GABA synapses); settings: for sIPSC frequency respect to pre-drug values: HU210 1 μM
Sequence of cannabinoid CB1 receptor (P47746 whole entry): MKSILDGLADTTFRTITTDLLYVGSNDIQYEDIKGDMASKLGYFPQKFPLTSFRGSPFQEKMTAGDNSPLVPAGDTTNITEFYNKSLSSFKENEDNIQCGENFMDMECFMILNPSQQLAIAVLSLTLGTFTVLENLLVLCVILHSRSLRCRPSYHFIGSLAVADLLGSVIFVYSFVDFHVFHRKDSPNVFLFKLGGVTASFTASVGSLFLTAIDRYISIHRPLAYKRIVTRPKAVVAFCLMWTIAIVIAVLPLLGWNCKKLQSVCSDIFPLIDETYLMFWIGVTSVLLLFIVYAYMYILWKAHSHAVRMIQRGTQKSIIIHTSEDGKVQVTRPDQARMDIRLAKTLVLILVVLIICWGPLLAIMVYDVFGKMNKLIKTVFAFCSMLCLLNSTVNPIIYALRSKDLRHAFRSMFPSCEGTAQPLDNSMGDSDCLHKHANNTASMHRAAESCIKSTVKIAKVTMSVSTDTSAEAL
Experimental: Recordings were performed between 25 and 35 dpi. Mice were killed by cervical dislocation under halothane anaesthesia, and corticostriatal coronal slices (200 μm) were prepared from fresh tissue blocks of the brain with the use of a vibratome (Centonze et al., 2007, 2009; Rossi et al., 2010a,b). A single slice was then transferred to a recording chamber and submerged in a continuously flowing artificial CSF (ACSF) (34° C., 2-3 ml/min) gassed with 95% O2-5% CO2. The composition of the control ACSF was (in mM): 126 NaCl, 2.5 KCl, 1.2 MgCl2, 1.2 NaH2PO4, 2.4 CaCl2, 11 Glucose, 25 NaHCO3. Recording pipettes were advanced towards individual striatal cells in the slice under positive pressure and visual control (WinVision 2000, Delta Sistemi, Italy) and, on contact, tight GΩ seals were made by applying negative pressure. The membrane patch was then ruptured by suction and membrane current and potential monitored using an Axopatch 1D patch clamp amplifier (Axon Instruments, Foster City, Calif., USA). Whole-cell access resistances measured in voltage clamp were in the range of 5-20 MΩ. Whole-cell patch clamp recordings were made with borosilicate glass pipettes (1.8 mm o.d.; 2-3 MΩ), in voltage-clamp mode, at the holding potential (HP) of −80 mV. […] Conversely, to detect spontaneous GABAAmediated inhibitory postsynaptic currents (sIPSCs), intraelectrode solution had the following composition (mM): CsCl (110), K+-gluconate (30), ethylene glycol-bis(β-aminoethyl ether)-N,N,N′,N′-tetra-acetic acid (EGTA; 1.1), HEPES (10), CaCl2 (0.1), Mg-ATP (4), Na-GTP (0.3). MK-801 (30 μM) and CNQX (10 μM) were added to the external solution to block, respectively, NMDA and nonNMDA glutamate receptors. Synaptic events were stored by using P-CLAMP (Axon Instruments) and analyzed off line on a personal computer with Mini Analysis 5.1 (Synaptosoft, Leonia, N.J., USA) software. The detection threshold of spontaneous IPSCs and EPSCs was set at twice the baseline noise. The fact that no false events would be identified was confirmed by visual inspection for each experiment. Offline analysis was performed on spontaneous and miniature synaptic events recorded during fixed time epochs (3-5 min, 3-6 samplings), sampled every 5 or 10 minutes. […] For kinetic analysis, events with peak amplitude between 10 and 50 pA were grouped, aligned by half-rise time, normalized by peak amplitude. In each cell, the events were averaged to obtain rise times, decay times, and half widths (Centonze et al., 2009; Rossi et al., 2010a,b). […]
For data presented as mean±SE, n indicates the number of cells. One to six cells per animal were recorded. […] Multiple comparisons were analysed by one-way ANOVA followed by Tukey's HSD test. Comparisons between two groups were analysed by paired or unpaired Student's t-test. […]

[2] = tested on: glutamate-mediated sEPSCs in striatal neurons; experiment: Whole-cell patch clamp of sEPSCs in striatal neurons of LQ-treated EAE mice; type: in vivo, mouse; settings: LQ-EAE mice 25 mg/kg
[3] = tested on: GABAA-mediated sIPSCs in control neurons; experiment: Bath application of LQ on corticostriatal slices of wild type mice, sIPSCs; type: cell-based, mouse
[4] = mouse, in vivo, sc, 25 mg/kg
[5] = systemically administered (Brück et al., 2011); cited from earlier work
EAE mice = experiment: EAE induction and disease evaluation, preventive daily s.c. LQ; type: in vivo, mouse; settings: for mice that developed the disease (incidence): 0-26 d.p.i., 15 mice; for maximum disease score: score 0-5
Experimental: Female C57BL/6 mice at 6-8 weeks of age were purchased from Charles River (Calco, Milan, Italy) and housed in pathogen-free conditions. All procedures involving animals were performed according to the guidelines of the San Raffaele Scientific Institute Institutional Animal Care and Use Committee.
EAE was induced by immunization with 3 subcutaneous injection of 100 μl each, containing a total of 200 μg of myelin oligodendrocyte glycoprotein (MOG) peptide 35-55 (Multiple Peptide System) in incomplete Freund's adjuvant and 8 mg/ml of Mycobacterium tuberculosis (strain H37Ra; Difco). Pertussis toxin (Sigma) (500 ng) was injected on the day of the immunization and again two days later. Body weight and clinical score (0=healthy; 1=limp tail; 2=ataxia and/or paresis of hindlimbs; 3=paralysis of hindlimbs and/or paresis of forelimbs; 4=tetraparalysis; 5=moribund or death) were recorded daily.
EAE mice were treated once daily by subcutaneous (s.c.) injection of LQ (supplied by Teva Pharmaceutical Industries, Netanya, Israel) (thereafter referred as LQ-EAE). LQ was administered at different doses (from 1 to 25 mg/kg) starting the same day of immunization up to 26 days post immunization (d.p.i.). Sham treated EAE mice (thereafter referred as untreated-EAE) and healthy control mice (thereafter referred as HC) were used as controls. Statistical analysis was performed using the unpaired Student's t-test.

spinal cord of EAE mice = experiment: Histological evaluation of spinal cord of EAE mice; type: in vivo, mouse
Experimental: At least 5 mice per group were transcardially perfused through the left cardiac ventricle with saline, plus EDTA 0.5 M for 5-10 min followed by fixation with cold 4% paraformaldehyde (PFA) (Sigma, St Louis, Mo.) in 0.1 M phosphate buffer (pH 7.4). Subsequently, spinal cords and brains were carefully dissected out and post-fixed in 4% PFA for 3-4 h and processed for paraffin embedding. The quantification of neurological damage was performed on 5 μm paraffin CNS sections obtained from HC, LQ-EAE mice, and untreated-EAE mice. Three different staining were used to detect inflammatory infiltrates (H&E), demyelination (Luxol fast blue) and axonal damage (Bielshowsky). Immunohistochemistry for CD3 (pan-T cell marker, Serotec Ltd, Oxford, UK), and BS-I isolectin B4 (biotinilated from Sigma, St Louis, Mo.) was performed to investigate T cells and macrophages within the inflammatory cellular infiltrates, respectively. […] Neuropathological findings were quantified on an average of 18-20 complete cross-sections of spinal cord per mouse taken at 8 different levels of the spinal cord. The number of perivascular inflammatory infiltrates were calculated and expressed as the numbers of inflammatory infiltrates per mm^2, demyelinated areas and axonal loss were expressed as percentage of damaged area per mm2. The number of T cells and macrophages lining within the subarachnoid space or infiltrating the CNS parenchyma was calculated and expressed as the number of cells per mm2. An Olympus microscope for the acquisitions of pictures was used. Statistical analysis was performed using the unpaired Student's t-test.

[6] = background statement; cited from earlier work
[7] = tested on: GABAA-mediated sIPSCs in striatal neurons; experiment: Whole-cell patch clamp of sIPSCs in striatal neurons of LQ-treated EAE mice; type: in vivo, mouse; settings: LQ-EAE mice 25 mg/kg, n=20
aEAE model = settings: shown in U.S. Pat. No. 6,077,851; cited from earlier work
[8] = LQ-EAE mice vs untreated-EAE mice
[9] = s.c. LQ vs untreated-EAE mice, spinal cord sections
[10] = LQ 1 μM bath application, control neurons
[11] = LQ 1 μM, 12 minutes, control neurons

For N#Cc1cc2[nH]c(=O)c(=O)[nH]c2cc1[N+](=O)[O-] [CNQX, reference compound], the “blockade of sEPSCs recorded in the presence of LQ” value ([1]; CNQX 10 μM, n=5) was “fully blocked”.
For CCCCCCC(C)(C)c1cc(O)c2c(c1)OC(C)(C)[C@@H]1CC=C(CO)C[C@@H]21 [HU210], the “sIPSC frequency respect to pre-drug values” (cannabinoid CB1 receptor; 10 min, control slices, n=8) was 76±3%, the “sIPSC frequency respect to pre-drug values” (cannabinoid CB1 receptor; striatal neurons from LQ-EAE mice (25 mg/kg), n=10) was 75±3% and the “sIPSC frequency respect to pre-drug values” (cannabinoid CB1 receptor; striatal neurons from untreated EAE mice, n=10) was 101±3%.
In the case of CCN(C(=O)c1c(O)c2c(Cl)cccc2n(C)c1=O)c1ccccc1 [LQ, N-ethyl-N-phenyl-1,2-dihydro-4-hydroxy-5-chloro-1-methyl-2-oxoquinoline-3-carboxamide], the sEPSC decay time ([2]; 25-35 dpi, n=20, untreated-EAE 5.4±0.4, HC 3.4±0.2) is reported as 4.2 ± 0.3 ms, the sEPSC frequency ([2]; n=20, untreated-EAE 4.0±0.2, HC 2.7±0.2) is reported as 3.4±0.4 Hz and the sEPSC half-width ([2]; n=20, untreated-EAE 6.4±0.4, HC 4.0±0.3) is reported as 5.0 ± 0.3 ms. For the same compound, the sEPSC rise time ([2]; untreated-EAE 1.05±0.1, HC 1.03±0.1) was 0.98 ± 0.1 ms, the sEPSC amplitude ([2]; untreated-EAE 11.1±0.8, HC 12.0±1.0) was 12.2±1.1 pA and the sIPSC amplitude ([3]; LQ 1 μM bath application) was “failed to alter”. For the same compound, the sIPSC frequency ([3]; LQ 1 μM bath application) was “failed to alter”, the “sIPSC decay time compared to pre-drug values” ([3]; LQ 1 μM, 12 minutes) was 98±3% and the “sIPSC rise time compared to pre-drug values” ([3]; LQ 1 μM, 12 minutes) was 101±2%. The sIPSC frequency ([3]; LQ 10-30 μM bath application, n=8, p<0.01) was “significantly increased”, the EC50 ([3]; Mus musculus, Neuron, dose-response curve, bath application, read-out: EC50 of LQ-induced increase of sIPSC frequency) was 4.3 µM and the CNS concentration [4] was 0.3 to 1 µM. The “crossing of the blood brain barrier” value [5] was “able to cross the blood brain barrier”, the “mice that developed the disease (incidence)” value (EAE mice; 1 mg/kg LQ s.c. daily, untreated-EAE 15/15) was 86.6% and the maximum disease score (EAE mice; 1 mg/kg LQ s.c. daily, sham 3.5) was 3.5. For the same compound, the “cumulative score (0-26 dpi)” value (EAE mice; 1 mg/kg LQ s.c. daily, untreated EAE 27.5) was 27.3, the mean disease onset (EAE mice; 1 mg/kg LQ s.c. daily, untreated-EAE 11.9 (±2.33)) was 11.9 (±2.47) and the “cumulative score (0-26 dpi)” value (EAE mice; 5 mg/kg LQ s.c. daily) was 21.5. The mean disease onset (EAE mice; 5 mg/kg LQ s.c. daily) was 14.6 (±4.29), the “mice that developed the disease (incidence)” value (EAE mice; 5 mg/kg LQ s.c. daily) was 80% and the maximum disease score (EAE mice; 5 mg/kg LQ s.c. daily) was 3. For the same compound, the “cumulative score (0-26 dpi)” value (EAE mice; 25 mg/kg LQ s.c. daily) was 21.3, the “mice that developed the disease (incidence)” value (EAE mice; 25 mg/kg LQ s.c. daily) was 40% and the maximum disease score (EAE mice; 25 mg/kg LQ s.c. daily) was 1.5. For the same compound, the “suppression of EAE” value (EAE mice; preventive treatment 0-26 dpi, daily s.c. 1-25 mg/kg, dose-dependent) was “significantly suppresses”, the mean disease onset (EAE mice; printed "the mg/kg LQ-EAE mice" (dose figure missing), s.c. daily) was 13.5 (±2.43) and the “effect of CB1 receptor agonist HU210 on sIPSCs after LQ treatment” value (cannabinoid CB1 receptor; prophylactic LQ 25 mg/kg in EAE mice) was “completely restored”. The “CD3+ T cells” value (spinal cord of EAE mice; [8]) was “significant reduction”, the “IB4+ macrophages” value (spinal cord of EAE mice; [8]) was “significant reduction” and the “axonal damage (percentage over total section area)” value (spinal cord of EAE mice; [9]) was “significantly reduces”. For the same compound, the “inflammation (perivascular infiltrates per section)” value (spinal cord of EAE mice; [9]) was “significantly reduces”, the “myelin loss (demyelination, percentage over total section area)” value (spinal cord of EAE mice; [9]) was “significantly reduces” and the sEPSC amplitude [1, 10] was “failed to alter”. The sEPSC frequency [1, 10] was “failed to alter”, the “sEPSC decay time compared to pre-drug values” [1, 11] was 101±2% and the “sEPSC rise time compared to pre-drug values” [1, 11] was 99±1%. The sEPSC amplitude ([1]; LQ 10-30 μM bath application, control neurons, n=10, p<0.01) was “reducing”, the EC50 ([1]; Mus musculus, Neuron, dose-response curve, bath application, control neurons, read-out: EC50 of LQ-induced decrease of sEPSC amplitude) was 4.5 µM and the “sEPSC frequency respect to pre-drug values” ([1]; highest concentration of LQ, n=7, p<0.05) was 83±2.7%. The oral bioavailability [6] was “high”, the sIPSC frequency ([7]; untreated-EAE 0.8±0.1, HC 1.7±0.1) was 2.0±0.2 Hz and the sIPSC amplitude ([7]; untreated-EAE 20±1.5, HC 32±1.3) was 29±1.1 pA. For the same compound, the “efficacy in the acute experimental autoimmune encephalomyelitis (aEAE) model” value (aEAE model) was “effective”.
